Like-named read-outs stand apart in the source and are kept apart here. Marks after values point to notes of the source that are not given here.
Experiments:
[1] = system: SARS-CoV-2 B.1.351 (Beta variant); format: in vivo, BALB/c mice; settings: for level of infectious SARS-CoV-2 in the lung at 2 dpi compared to vehicle: V2043, V2053, V2067 at 27 or 80 mg/kg; for lung infectious units vs limit of detection at 4 dpi: V2043 and V2067 27 and 80 mg/kg, V2053 80 mg/kg once daily, EIDD-2801 100 mg/kg BID, GS-5245 30 mg/kg BID; for Daily dose required to reach below the limit of detection on day 4 post-infection / Molar daily dose required to reach below the limit of detection on day 4 post-infection / reduction of lung infectious units compared to vehicle: mouse, in vivo; for reduction of lung infectious units compared to vehicle: po, 80 mg/kg; for lung titers reduced to below the limit of detection at 4 dpi: GS-5245 10 mg/kg BID, remdesivir 25 mg/kg BID
[2] = system: SARS-CoV-2 B.1.351 (Beta variant); format: in vivo, BALB/c mice; settings: for reduction of lung titers: mouse, in vivo, po, 80 mg/kg; for effect on lung titers at day 4 post-infection / lung titers vs limit of detection at day 4 post-infection / weight loss at 2 dpi compared to vehicle-treated mice / lung histopathology scores at 4 dpi / effect on lung titers at day 2 / effect on lung titers at 4 dpi (significant reduction): prophylaxis; for effect on lung titers at day 4 post-infection: 27 mg/kg or 80 mg/kg once daily PO; for antiviral effects on lung titers at 2 dpi: prophylaxis, 8, 27 or 80 mg/kg once daily PO; for lung titers vs limit of detection at day 4 post-infection: once daily PO, for V2067 even at 8 mg/kg; for weight loss at 2 dpi compared to vehicle-treated mice: V2043 80 mg/kg, V2053 27 and 80 mg/kg, V2067 all doses; for weight loss at 2 dpi compared to vehicle-treated mice / effect on lung titers at 4 dpi (significant reduction): obeldesivir 10 or 30 mg/kg BID; for lung histopathology scores at 4 dpi: GS-5245 30 mg/kg BID, V2053 8 mg/kg, H&E; for effect on lung titers at day 2: EIDD-2801 100 mg/kg BID, GS-5245 10 or 30 mg/kg BID; for effect on lung titers at day 2 / effect on lung titers at 4 dpi (significant reduction): PO; for effect on lung titers at 4 dpi (significant reduction): comparators: EIDD-2801 100 mg/kg BID, remdesivir 25 mg/kg BID
[3] = daily dose derived from prophylaxis experiment (Fig. 4)

Row | SMILES | level of infectious SARS-CoV-2 in the lung at 2 dpi compared to vehicle [1] | lung infectious units vs limit of detection at 4 dpi [1] | Daily dose required to reach below the limit of detection on day 4 post-infection [1] | Molar daily dose required to reach below the limit of detection on day 4 post-infection [1] | reduction of lung infectious units compared to vehicle [1] | reduction of lung titers [2] | effect on lung titers at day 4 post-infection [2] | antiviral effects on lung titers at 2 dpi [2] | lung titers vs limit of detection at day 4 post-infection [2] | weight loss at 2 dpi compared to vehicle-treated mice [2] | lung histopathology scores at 4 dpi [2] | effect on lung titers at day 2 [2] | effect on lung titers at 4 dpi (significant reduction) [2] | lung titers reduced to below the limit of detection at 4 dpi [1] | Fold ∆ vs MPV (molar daily dose) ([1]; therapeutic model) | Fold ∆ vs OBDV (molar daily dose) ([1]; therapeutic model) | Daily dose required to reach below the limit of detection on day 4 post-infection [2, 3] | Fold ∆ vs MPV (molar daily dose) [2, 3] | Fold ∆ vs OBDV (molar daily dose) [2, 3] | Molar daily dose required to reach below the limit of detection on day 4 post-infection [2, 3]
1 | CCCCCCCCCCCCCCCCCCOC[C@H](COP(=O)(O)OC[C@H]1O[C@@](C#N)(c2ccc3c(N)ncnn23)[C@H](O)[C@@H]1O)OCc1ccccc1 [Compound V2043, 1-O-octadecyl-2-O-benzyl-sn-glyceryl-P-RVn] | significantly reduced | below the limit of detection in all animals | 27 mg/kg | 34.3 µmol/kg | 3.1 log10 | 2.29 Log10 | significantly reduced lung titers | dose-dependent antiviral effects | below the limit of detection in all animals | lost less weight |  |  |  |  |  |  |  |  |  | 
2 | CCCCCCCCC=CCCCCCCCCOCC(COP(=O)(O)OCC1OC(C#N)(c2ccc3c(N)ncnn23)C(O)C1O)OCc1ccc(OC)c(F)c1 (stereo not drawn) [Compound V2053] | significantly reduced | below the limit of detection in all animals |  |  | 3.0 log10 |  | significantly reduced lung titers | dose-dependent antiviral effects |  | lost less weight | small but significant reductions |  |  |  |  |  |  |  |  | 
3 | CC(C)C(=O)OC[C@H]1O[C@@H](n2ccc(NO)nc2=O)[C@H](O)[C@@H]1O [EIDD-2801, reference compound] |  | reduced lung titers to below the limit of detection | 200 mg/kg | 607 µmol/kg |  |  |  |  |  |  |  | significantly reduced lung titers | significantly reduced lung titers |  |  |  |  |  |  | 
4 | CCC(CC)COC(=O)[C@H](C)N[P@](=O)(OC[C@H]1O[C@@](C#N)(c2ccc3c(N)ncnn23)[C@H](O)[C@@H]1O)Oc1ccccc1 [remdesivir] |  |  |  |  |  |  |  |  |  |  |  |  | did not | did not |  |  |  |  |  | 
5 | CCCCCCCCCCCCCCCCCCOCC(COP(=O)(O)OC[C@H]1O[C@@](C#N)(c2ccc3c(N)ncnn23)[C@H](O)[C@@H]1O)OCc1ccc(C#N)cc1 (stereo partly drawn) [Compound V2067] | significantly reduced | below the limit of detection in all animals | 27 mg/kg | 33.2 µmol/kg | 3.2 log10 | 1.83 Log10 | significantly reduced lung titers | dose-dependent antiviral effects | below the limit of detection in all animals | lost less weight |  |  |  |  | 18.2× | 5.0× | 8^a mg/kg | 61.9× | 16.9× | 9.8 µmol/kg
6 | CC(C)C(=O)OC[C@H]1O[C@@](C#N)(c2ccc3c(N)ncnn23)[C@H](O)[C@@H]1O [Obeldesivir GS-5245, reference compound] |  | reduced lung titers to below the limit of detection | 60 mg/kg | 166 µmol/kg |  |  |  |  |  | lost less weight | small but significant reductions | significantly reduced lung titers | did not | did not |  |  |  |  |  | 

From publication PMC11459966, “Oral pharmacokinetics and efficacy of oral phospholipid remdesivir nucleoside prodrugs against SARS-CoV-2 in mice” (Antimicrobial Agents and Chemotherapy, 2024)
